# Values joined by “and” are separate entries in the source; they are usually repeats but may differ in a detail not shown here. Equal values may be shown once. Where a name gives a salt, the structure may show the parent alone.
# How the values were obtained:
# [1] = test system: membrane component of rat renal cortex; assay: Biological activity (cAMP generation, radioimmunoassay) by parallel test against bovine-PTH (1-84) standard; type: biochemical
# Text: Biological activity of teriparatide acetate unit can be determined by a parallel test wherein reacting a membrane component of rat renal cortex with teriparatide acetate and assaying generated cAMP by radioimmunoassay. The specific activity of teriparatide acetate is 3,300 units/mg by a parallel test using the standard substance of bovine-PTH (1-84).
# [2] = test system: urinary excretion of NAG; details: intravenous; IHP and PHP patients; Calcif. Tissue Int., 45(6):375 (1989); cited from earlier work
# [3] = test system: urinary NAG; assay: Urinary NAG response to intravenous h-PTH(1-34) in healthy male volunteers (Referential Example); type: in vivo
# Description: Method: Fourteen (14) healthy male volunteers were used.
# Prior to 60 minutes for intravenous administration of h-PTH(1-34) 100 units, complete excretion of urine was performed. 200 ml of drinking water was given to the individual volunteers and urine was collected immediately before administration of […]. Then, h-PTH(1-34) 100 units were administered intravenously and 200 ml of drinking water was given to the volunteers, and after 60 minutes urine was again collected. Each of urinary NAG and creatinine in 0.5 ml of urine was measured, and an increased ratio of urinary excreted NAG was calculated. NAG value was corrected by creatinine value.
# For an assay of NAG, NAG Test Shionogi (Shionogi Pharm. Co., assay method: mcp colorimetry) was used, and for that of creatinine, creatinine-HR (Wako Pure, Chem. Co., assay method: alkali picric acid method) was used. Table 1 illustrates the various parameters, i.e. NAG, AER and serum Cr, in pre- or post-administration of PTH for healthy male volunteers.
# NAG value corrected by creatinine (unit: U/g Cr) is calculated by the equation;
# Urinary NAG (Unit:U/l).div.urinary creatinine (unit:mg/dl)×100.
# The normal range of urinary NAG value after administration of PTH in healthy volunteers is defined according to the results obtained hereinabove as follows. The normal range is calculated by mean ±2 S.D.
# [4] = test system: urinary NAG; assay: Urinary NAG response to intravenous h-PTH(1-34) in patients with diabetes mellitus having AER below 15 μg/min (Example 2); type: in vivo
# Description: The predetermined dose of h-PTH(1-34), for example, is administered intravenously in the patients to carry out the monitoring method of the present invention. The patients are diabetes mellitus patients with an AER value below 15 μg/min., showing latent abnormal renal function without detecting manifestation of abnormal renal function. The h-PTH (1-34) is, for example, administered to these patients. Urinary excreted NAG of the patients can be assayed by hydrolysing a substrate NAG, i.e. sodium-cresol-sulfophthaleinyl-N-acetyl-β-D-glucosaminide (MCP-NAG), by NAG, coloring the thus generated m-cresol purple under alkaline condition by adding sodium carbonate and measuring colorimetrically 580 nm. Urinary NAG value is expressed, for example, as U/l (NAG active unit in one liter of urine). Urinary excreted NAG of the patients before administration of PTH and that after administration of PTH are measured, and an increased ratio of urinary excreted NAG value in the post-administration of PTH against the urinary excreted NAG value in the pre-administration of PTH is calculated.
# Urine of the pre-administration is collected by excretion after accumulating the urine at a constant time interval, preferably 60 min.±10 min., previously after excreting urine in the pre-administration of PTH. Collecting urine is preferably performed immediately before administration of PTH. Urine of the post-administrationis collected after accumulating the urine under the same condition in the pre-administration, i.e. after a constant time interval of 60 min.±10 min., because of performing excretion (collection) of urine immediately before administration of PTH. For effective accumulation of urine, a suitable amount of drinking water, for example 100-300 ml, may be given to the patients. Urinary NAG value can be measured using a specimen of 0.05-1 ml. Since a suitable volume of water is given to the patients, a correction of the NAG value is needed. Accordingly, a parameter of urine volume and concentration, for example another component such as urinary creatinine concentration (expressed as mg/dl) is measured, and NAG value per creatinine value is obtained. A corrected value of NAG for creatinine (Unit: U/g Cr) is calculated by;
# Urinary NAG (U/l ).div.urinary creatinine (mg/dl)×100.
# Method: Eighteen (18) patients with diabetes mellitus having AER within normal range (below 15 μg/min.) were used.
# Sixty minutes prior to intravenous administration of 100 units of h-PTH(1-34), complete excretion of urine was performed. 200 ml of drinking water were given to the individual volunteers and urine was collected immediately before administration of h-PTH(1-34). Then 100 units of h-PTH(1-34) were administered intravenously and 200 ml of drinking water were given for intake, and after 60 minutes urine was collected. Each of urinary NAG and creatinine in 0.5 ml of urine was measured to calculate the increased ratio of urinary excreted NAG. The NAG value was corrected by creatinine value.
# Tables 2 and 3 show the various parameters in pre- and post-administration of PTH for the patients of diabetes mellitus showing the value with the normal range of AER (below 15 μg/min.).
# [5] = mean of 14 healthy male volunteers, 100 units i.v., 60 min
# [6] = mean of 18 diabetic patients, 100 units i.v., 60 min
# [7] = of 18 diabetic patients, 100 units i.v.
compound,measurement,setting,value
CC[C@H](C)[C@H](NC(=O)[C@H](CCC(=O)O)NC(=O)[C@H](CO)NC(=O)[C@@H](NC(=O)[C@@H](N)CO)C(C)C)C(=O)N[C@@H](CCC(N)=O)C(=O)N[C@@H](CC(C)C)C(=O)N[C@@H](CCSC)C(=O)N[C@@H](Cc1cnc[nH]1)C(=O)N[C@@H](CC(N)=O)C(=O)N[C@@H](CC(C)C)C(=O)NCC(=O)N[C@@H](CCCCN)C(=O)N[C@@H](Cc1cnc[nH]1)C(=O)N[C@@H](CC(C)C)C(=O)N[C@@H](CC(N)=O)C(=O)N[C@@H](CO)C(=O)N[C@@H](CCSC)C(=O)N[C@@H](CCC(=O)O)C(=O)N[C@@H](CCCN=C(N)N)C(=O)N[C@H](C(=O)N[C@@H](CCC(=O)O)C(=O)N[C@@H](Cc1c[nH]c2ccccc12)C(=O)N[C@@H](CC(C)C)C(=O)N[C@@H](CCCN=C(N)N)C(=O)N[C@@H](CCCCN)C(=O)N[C@@H](CCCCN)C(=O)N[C@@H](CC(C)C)C(=O)N[C@@H](CCC(N)=O)C(=O)N[C@@H](CC(=O)O)C(=O)N[C@H](C(=O)N[C@@H](Cc1cnc[nH]1)C(=O)N[C@@H](CC(N)=O)C(=O)N[C@@H](Cc1ccccc1)C(=O)O)C(C)C)C(C)C [Teriparatide hydrochloride],Specific activity of the bulk used for the injection,"[1]; Example 1, Teriparatide hydrochloride","3,333 teriparatide acetate units/mg"
"h-PTH(1-34): h-PTH(1-34) having molecular weight about 4,400 with 34 imino acids sequence",Urinary excretion of NAG (in words),[2],increased urinary excretion of NAG in only IHP
same,Urinary excretion of NAG (in words),[3]; administration of human-PTH (1-34) in healthy volunteers,increased urinary excretion of NAG
same,Normal range of increased ratio of urinary NAG in post-administration to pre-administration,"[3]; healthy volunteers, mean ±2 S.D.",2.4-4.7
same,Urinary NAG post-,"[3]; individual healthy male volunteers, 100 units h-PTH(1-34) i.v., urine 60 min after",5.9 U/gCr and 8.6 U/gCr and 10.7 U/gCr and 5.7 U/gCr and 7.3 U/gCr and 11.0 U/gCr and 14.7 U/gCr and 17.0 U/gCr and 10.0 U/gCr and 19.3 U/gCr and 6.4 U/gCr and 8.3 U/gCr and 9.8 U/gCr
same,Urinary NAG changes,"[3]; individual healthy male volunteers, post minus pre, 100 units h-PTH(1-34) i.v., 60 min",4.3 U/gcr and 6.4 U/gcr and 7.4 U/gcr and 4.4 U/gcr and 4.9 U/gcr and 8.1 U/gcr and 9.7 U/gcr and 11.5 U/gcr and 7.3 U/gcr and 15.0 U/gcr and 5.8 U/gcr and 6.3 U/gcr and 6.2 U/gcr
same,Urinary NAG changes in ratio,"[3]; individual healthy male volunteers, post/pre, 100 units h-PTH(1-34) i.v., 60 min",3.8 and 3.9 and 3.3 and 4.4 and 3.1 and 3.7 and 2.9 and 3.6 and 4.1 and 3.4 and 2.8 and 2.6
same,"Urinary NAG changes in ratio (increased ratio post-/pre-administration), mean",[3]; [5],3.5 and 3.5±0.6
same,"Urinary NAG changes, mean",[3]; [5],7.3 U/gcr
same,"Urinary NAG post-, mean",[3]; [5],10.3 U/gCr and 10.3±4.1 U/gCr
same,Urinary NAG post-,"[4]; individual diabetic patients, AER below 15 μg/min, 100 units h-PTH(1-34) i.v., urine 60 min after",7.3 U/gCr and 7.8 U/gCr and 15.6 U/gCr and 7.5 U/gCr and 11.0 U/gCr and 12.2 U/gCr and 6.8 U/gCr and 17.5 U/gCr and 10.1 U/gCr and 15.3 U/gCr and 4.5 U/gCr and 23.9 U/gCr and 13.4 U/gCr and 15.9 U/gCr and 9.7 U/gCr and 6.7 U/gCr and 16.7 U/gCr
same,Urinary NAG changes,"[4]; individual diabetic patients, post minus pre, 100 units h-PTH(1-34) i.v., 60 min",3.4 U/gcr and 3.9 U/gcr and 7.9 U/gcr and 3.7 U/gcr and 7.1 U/gcr and 4.9 U/gcr and 7.5 U/gcr and 5.8 U/gcr and 11.7 U/gcr and 2.2 U/gcr and 12.7 U/gcr and 8.1 U/gcr and 9.3 U/gcr and 5.1 U/gcr
same,Urinary NAG changes in ratio,"[4]; individual diabetic patients, post/pre, 100 units h-PTH(1-34) i.v., 60 min",1.9 and 2.0 and 2.8 and 1.7 and 2.2 and 1.8 and 2.4 and 4.3 and 1.6 and 2.1 and 2.5 and 2.3 and 3.4
same,"Urinary NAG changes in ratio, mean",[4]; [6],2.3
same,"Urinary NAG changes, mean",[4]; [6],6.5 U/gcr
same,"Urinary NAG post-, mean",[4]; [6],11.8 U/gCr
same,Number of patients with normal increased ratio of urinary excreted NAG (2.4-4.7),[4]; [7],6 subjects
same,"Number of patients with significantly decreased increased ratio of urinary NAG (2.3), diagnosed as renal lesion without clinical symptoms of nephropathy",[4]; [7],12 cases
teriparatide acetate,Specific activity,[1]; parallel test using standard substance of bovine-PTH (1-84),"3,300 units/mg"
